Earlier results in patent US3955959A, “Herbicide for use in transplanted rice” (priority 1974, dated 1976).

Key:
rice = settings: prior art; cited from earlier work
weeds in rice fields = settings: prior art; cited from earlier work

Row | SMILES | crop safety (rice) | spectrum of weed control (weeds in rice fields)
1 | CC(C)Oc1cc(-n2nc(C(C)(C)C)oc2=O)c(Cl)cc1Cl [2-tert-butyl-4-(2,4-dichloro-5-isopropyloxyphenyl)-5-oxo-1,3,4-oxadiazoline] | marginal crop safety | 
2 | CCSC(=O)N1CCCCCC1 [S-ethyl hexahydro-1H-azepine-1-carbothioate] |  | narrow spectrum of weed control
